# Measured values taken from US20180118708A1, “CYCLIC COMPOUND” (Takeda Pharmaceutical Company Limited, priority 2015, published 2018).
# Molecular target: T1, TLR4 (Mus musculus, UniProt Q9QUK6)
# T1 construct: endogenous in cells; host or cells: RAW264.7 (murine macrophage cell line)
# T1 sequence (Q9QUK6 26-835): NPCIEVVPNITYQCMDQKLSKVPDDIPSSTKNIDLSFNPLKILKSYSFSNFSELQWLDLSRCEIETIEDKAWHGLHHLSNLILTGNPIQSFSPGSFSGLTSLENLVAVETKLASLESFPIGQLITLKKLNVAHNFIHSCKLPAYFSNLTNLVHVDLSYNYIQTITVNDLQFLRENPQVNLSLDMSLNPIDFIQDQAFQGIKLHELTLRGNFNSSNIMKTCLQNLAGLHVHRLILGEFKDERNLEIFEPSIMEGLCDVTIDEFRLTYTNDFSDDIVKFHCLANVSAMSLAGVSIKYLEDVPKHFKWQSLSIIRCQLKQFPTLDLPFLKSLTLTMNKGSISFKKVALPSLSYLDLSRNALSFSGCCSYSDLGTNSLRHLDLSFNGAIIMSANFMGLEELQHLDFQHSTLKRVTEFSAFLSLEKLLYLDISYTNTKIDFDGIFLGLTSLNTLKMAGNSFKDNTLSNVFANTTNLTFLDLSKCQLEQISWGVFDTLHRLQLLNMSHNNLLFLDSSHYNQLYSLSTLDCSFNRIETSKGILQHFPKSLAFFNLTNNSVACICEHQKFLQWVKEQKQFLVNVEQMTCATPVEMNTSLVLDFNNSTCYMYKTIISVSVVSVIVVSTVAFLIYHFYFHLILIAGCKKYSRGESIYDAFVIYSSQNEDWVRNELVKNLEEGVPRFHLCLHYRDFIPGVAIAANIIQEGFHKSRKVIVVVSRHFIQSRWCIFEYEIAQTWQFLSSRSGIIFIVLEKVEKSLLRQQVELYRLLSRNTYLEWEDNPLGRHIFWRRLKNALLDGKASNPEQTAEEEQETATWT
# T1 sequence (Q9JHF9 19-160 partner): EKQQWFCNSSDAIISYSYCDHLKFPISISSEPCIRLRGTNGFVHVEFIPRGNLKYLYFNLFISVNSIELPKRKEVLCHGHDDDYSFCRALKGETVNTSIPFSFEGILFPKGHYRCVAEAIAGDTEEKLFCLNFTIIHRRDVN
# Assay: Inhibitory effect with respect to NO production (LPS/interferon γ stimulated RAW264.7 cells)
# Type: cell-based, murine
# Settings: test compound 100 nM, LPS 1.25 ng/mL + mouse interferon γ 0.2 ng/mL, nitrite ion in culture supernatant
# Protocol: Inhibitory Effect With Respect to NO Production
# The inhibitory effect on TLR4 was determined using the inhibition rate due to the test compound with respect to NO production as a result of addition of lipopolysaccharide (LPS) using murine macrophage cell line RAW264.7. The cells were adjusted to 2×10^6 cells/mL using RPM1-1640 culture medium (phenol red free) supplemented with 10% inactivated bovine fetal serum, and were plated on 384 well plate so as to contain 6×10^4 cells/30 μL per well. Thereafter the cells were cultured at 37° C. overnight under 5% CO2/95% air. The test compound dissolved in DMSO was diluted 200 times using RPM1-1640 culture medium and adjusted so as to form a compound concentration of 500 nM. The prepared test compound 10 μL (final concentration 100 nM) was added to the cells, and LPS (Sigma) and mouse interferon γ (Wako Pure Chemicals) were added in amounts of 10 μL so as to form final concentrations of 1.25 ng/mL and 0.2 ng/mL respectively. The cells were further cultured overnight, and then the nitrite ion (stable NO metabolite) concentration in the culture supernatant was measured as an index of NO production. The nitrite ion concentration was assayed by adding 10 μL of 20 μg/mL 2,3-diamino naphthalene (DAN) dissolved in 0.2N HCl to 20 μL culture supernatant, incubating at room temperature for ten minutes, and then adding 10 μL of 0.5N NaOH, and measuring the fluorescent value at 460 nm (excitation wavelength 355 nm) using an EnVision plate reader (Perkin Elmer). The NO production inhibition rate (%) was calculated using the value without the addition of stimulating agent as control of 100% inhibition, and the value without the addition of the compound as control of 0% inhibition.
row,Structure (SMILES),NO production inhibitory effect at 100 nM (% inhibition)
1,"CCOC(=O)C1=CC2(CC[C@H]1S(=O)(=O)Cc1ccccc1Cl)O[C@H](CO)[C@@H](CO)O2 [Compound 31, ethyl (2R,3R,8R)-8-((2-chlorobenzyl)sulfonyl)-2,3-bis(hydroxymethyl)-1,4-dioxaspiro[4.5]dec-6-ene-7-carboxylate]",103
2,"CCOC(=O)C1=CC2(CCC1S(=O)(=O)Cc1c(C)cccc1Cl)O[C@@H](CO)[C@H](CO)O2 (stereo partly drawn) [Compound 26, ethyl (2S,3S)-8-((2-chloro-6-methylbenzyl)sulfonyl)-2,3-bis(hydroxymethyl)-1,4-dioxaspiro[4.5]dec-6-ene-7-carboxylate]",110
3,"CCOC(=O)C1=CC2(CCC1S(=O)(=O)Cc1ccccc1Cl)O[C@@H](CO)[C@H](CO)O2 (stereo partly drawn) [Compound 23, ethyl (2S,3S)-8-((2-chlorobenzyl)sulfonyl)-2,3-bis(hydroxymethyl)-1,4-dioxaspiro[4.5]dec-6-ene-7-carboxylate]",100
4,"CCOC(=O)C1=CC2(CCC1S(=O)(=O)Cc1ccc(F)c(Cl)c1)O[C@H](CO)[C@@H](CO)O2 (stereo partly drawn) [Compound 5, ethyl (2R,3R)-8-((3-chloro-4-fluorobenzyl)sulfonyl)-2,3-bis(hydroxymethyl)-1,4-dioxaspiro[4.5]dec-6-ene-7-carboxylate]",100
5,"CCOC(=O)C1=CC2(CCC1S(=O)(=O)Cc1ccc(F)cc1Cl)OC[C@@H](CNC(=O)OC(C)(C)C)O2 (stereo partly drawn) [Compound 27, ethyl (2R)-2-(((tert-butoxycarbonyl)amino)methyl)-8-((2-chloro-4-fluorobenzyl)sulfonyl)-1,4-dioxaspiro[4.5]dec-6-ene-7-carboxylate]",98
6,"CCOC(=O)C1=CC2(CC[C@H]1S(=O)(=O)Cc1ccccc1Cl)O[C@@H](CO)[C@H](CO)O2 [Compound 32, ethyl (2S,3S,8R)-8-((2-chlorobenzyl)sulfonyl)-2,3-bis(hydroxymethyl)-1,4-dioxaspiro[4.5]dec-6-ene-7-carboxylate]",114
7,"CCOC(=O)C1=CC2(CCC1S(=O)(=O)Cc1ccc(F)cc1Cl)O[C@H](C)[C@@H](C)O2 (stereo partly drawn) [Compound 18, ethyl (2R,3R)-8-((2-chloro-4-fluorobenzyl)sulfonyl)-2,3-dimethyl-1,4-dioxaspiro[4.5]dec-6-ene-7-carboxylate]",100
8,"CCOC(=O)C1=CC2(CCC1S(=O)(=O)Cc1ccc(F)cc1Cl)O[C@H](COC(C)=O)[C@@H](COC(C)=O)O2 (stereo partly drawn) [Compound 10, ethyl (2R,3R)-2,3-bis(acetoxymethyl)-8-((2-chloro-4-fluorobenzyl)sulfonyl)-1,4-dioxaspiro[4.5]dec-6-ene-7-carboxylate]",110
9,"CCOC(=O)C1=CC2(CCC1S(=O)(=O)Cc1ccc(F)cc1Cl)OC[C@H](CNC(=O)OCc1ccccc1)O2 (stereo partly drawn) [Compound 29, ethyl (2S)-2-((((benzyloxy)carbonyl)amino)methyl)-8-((2-chloro-4-fluorobenzyl)sulfonyl)-1,4-dioxaspiro[4.5]dec-6-ene-7-carboxylate]",86

# Next, values leading:
row,NO production inhibitory effect at 100 nM (% inhibition),Structure (SMILES)
1,100,"CCOC(=O)C1=CC2(CCC1S(=O)(=O)Cc1cc(F)ccc1Cl)O[C@H](CO)[C@@H](CO)O2 (stereo partly drawn) [Compound 21, ethyl (2R,3R)-8-((2-chloro-5-fluorobenzyl)sulfonyl)-2,3-bis(hydroxymethyl)-1,4-dioxaspiro[4.5]dec-6-ene-7-carboxylate]"
2,100,"CCOC(=O)C1=CC2(CCC1S(=O)(=O)Cc1cccc(C)c1)O[C@H](CO)[C@@H](CO)O2 (stereo partly drawn) [Compound 12, ethyl (2R,3R)-2,3-bis(hydroxymethyl)-8-((3-methylbenzyl)sulfonyl)-1,4-dioxaspiro[4.5]dec-6-ene-7-carboxylate]"
3,100,"CCOC(=O)C1=CC2(CCC1S(=O)(=O)Cc1ccc(F)cc1Br)O[C@H](CO)[C@@H](CO)O2 (stereo partly drawn) [Compound 17, ethyl (2R,3R)-8-((2-bromo-4-fluorobenzyl)sulfonyl)-2,3-bis(hydroxymethyl)-1,4-dioxaspiro[4.5]dec-6-ene-7-carboxylate]"
4,100,"CCOC(=O)C1=CC2(CCC1S(=O)(=O)Cc1cc(Cl)ccc1F)O[C@H](CO)[C@@H](CO)O2 (stereo partly drawn) [Compound 4, ethyl (2R,3R)-8-((5-chloro-2-fluorobenzyl)sulfonyl)-2,3-bis(hydroxymethyl)-1,4-dioxaspiro[4.5]dec-6-ene-7-carboxylate]"
5,94,"C#CCCCCOC[C@@H]1COC2(C=C(C(=O)OCC)C(S(=O)(=O)Cc3ccc(F)cc3Cl)CC2)O1 (stereo partly drawn) [Compound 28, ethyl (2R)-8-((2-chloro-4-fluorobenzyl)sulfonyl)-2-((hex-5-yn-1-yloxy)methyl)-1,4-dioxaspiro[4.5]dec-6-ene-7-carboxylate]"
6,100,"CCOC(=O)C1=CC2(CCC1S(=O)(=O)Cc1cccc(OC)c1)O[C@H](CO)[C@@H](CO)O2 (stereo partly drawn) [Compound 13, ethyl (2R,3R)-2,3-bis(hydroxymethyl)-8-((3-methoxybenzyl)sulfonyl)-1,4-dioxaspiro[4.5]dec-6-ene-7-carboxylate]"
7,110,"CCOC(=O)C1=CC2(CCC1S(=O)(=O)Cc1ccc(F)cc1Cl)OCCO2 (stereo not shown) [Compound 22, ethyl 8-((2-chloro-4-fluorobenzyl)sulfonyl)-1,4-dioxaspiro[4.5]dec-6-ene-7-carboxylate]"
8,110,"CCOC(=O)C1=CC2(CCC1S(=O)(=O)Cc1ccc(F)cc1Cl)O[C@H](COC)[C@@H](COC)O2 (stereo partly drawn) [Compound 11, ethyl (2R,3R)-8-((2-chloro-4-fluorobenzyl)sulfonyl)-2,3-bis(methoxymethyl)-1,4-dioxaspiro[4.5]dec-6-ene-7-carboxylate]"

# Same assay, conditions: test compound 100 nM, LPS 1.25 ng/mL + mouse interferon γ 0.2 ng/mL, nitrite ion in culture supernatant, 0.1 µM
row,NO production inhibitory effect at 100 nM (% inhibition),Structure (SMILES)
1,110,"CCOC(=O)C1=CC2(CCC1S(=O)(=O)Cc1ccc(F)cc1Cl)OC[C@@H](CO)O2 (stereo partly drawn) [Compound 9, ethyl (2R)-8-((2-chloro-4-fluorobenzyl)sulfonyl)-2-(hydroxymethyl)-1,4-dioxaspiro[4.5]dec-6-ene-7-carboxylate]"
2,75,"CCOC(=O)C1=CC2(CCC1S(=O)(=O)Cc1ccc(F)cc1Cl)O[C@H](CO)[C@@H](CO)O2 (single isomer, unassigned) [Compound 15]"
3,77,"CCOC(=O)C1=CC2(CCC1S(=O)(=O)C(C)c1ccc(F)cc1Cl)O[C@H](CO)[C@@H](CO)O2 (single isomer, unassigned) [Compound 20]"
4,92,"CCOC(=O)C1=CC2(CCC1S(=O)(=O)Cc1ccc(F)cc1Cl)O[C@@H](CO)[C@H](CO)O2 (single isomer, unassigned) [Compound 6]"
5,110,"CCOC(=O)C1=CC2(CCC1S(=O)(=O)C(C)c1ccc(F)cc1Cl)O[C@H](CO)[C@@H](CO)O2 (single isomer, unassigned) [Compound 19]"
